In patent US5840698A, “Inhibitors of collagenase-1 and stormelysin-I metalloproteases, pharmaceutical compositions comprising same and methods of their use” (Affymax Technologies N.V., priority 1995, dated 1998):

Biological target: T1, carboxyl terminal truncated form of human stromelysin-I (Homo sapiens, UniProt P08254)
T1 construct: a carboxyl terminal truncated form of human stromelysin-I
Test: in vitro inhibition of truncated human stromelysin-I, fluorogenic Mca-peptide assay
Format: biochemical
Conditions: mercaptoalcohol compared with corresponding mercaptoketone
Method: For example, assays of in vitro inhibition activity against a carboxyl terminal truncated form of human stromelysin-I were conducted as follows. The buffer was prepared from 50 mM of N-[2-hydroxyethyl]piperazine-N'-[2-ethanesulfonic acid] (HEPES) (pH 7.0) containing 5 mM calcium, 0.02% of 23 lauryl ether (Brij) and 0.5 mM cysteine and was degassed by vacuum for more than 30 minutes. The methanol (MeOH), which is used for dilution of the inhibitor to the desired concentration, was degassed by bubbling argon for more than 30 minutes. For dilution, a sufficient amount of MeOH was then added to the compounds of the present invention to obtain a 10 mmol solution. For the assay, 20 μL of the MeOH/inhibitor solution was added to 460 μL of buffer, to which 20 μL of 100 nM of stromelysin was then added. The resulting solution was left for three minutes, after which time 5 μL of 100 μM of (7-methoxycoumarin-4-yl)acetyl-Pro-Leu-Gly-Leu-[3-(2',4'-dinitrophenyl)-L- 2,3-diaminopropionyl]-Ala-Arg-NH2 (Mca-peptide)(in dimethyl sulfoxide (DMSO)) was added. The fluorescence intensity increase was measured using a fluoremeter, with excitation wavelength centered around 328 nm (slit of 5 nm) and emission wavelength centered around 393 nm (slit of […]). The slope at each inhibitor concentration was then measured. The slope versus inhibition concentration was next fit into the IC50 equation of […]

T1 sequence (P08254 100-272 limits assumed): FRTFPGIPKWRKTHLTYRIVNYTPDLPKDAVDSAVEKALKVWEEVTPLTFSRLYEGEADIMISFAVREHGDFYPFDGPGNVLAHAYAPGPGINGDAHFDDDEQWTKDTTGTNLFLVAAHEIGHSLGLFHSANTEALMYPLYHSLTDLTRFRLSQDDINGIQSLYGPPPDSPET

potency against stromelysin relative to the corresponding compound (FIG. 11): more than twice as potent
Structure (SMILES): CC(C)C[C@H](CC1CSC(c2ccccc2)(c2ccccc2)O1)C(=O)N1C(=O)OC[C@@H]1Cc1ccccc1 (stereo partly shown) [FIG. 11 (3)]
